In patent publication US20240226026A1, “BRANCHED TAIL LIPID COMPOUNDS AND COMPOSITIONS FOR INTRACELLULAR DELIVERY OF THERAPEUTIC AGENTS” (ModernaTX, Inc., priority 2021, published 2024):

How the values were obtained:
[1] = Lipid nanoparticle surface hydrophobicity by Generalized Polarization by Laurdan (N-GP); type: physicochemical
Text: Surface hydrophobicity of nanoparticles of the disclosure can be measured by Generalized Polarization by Laurdan (GPL). In this method, Laurdan, a fluorescent aminonaphthalene ketone lipid, is post-inserted into the nanoparticle surface and the fluorescence spectrum of Laurdan is collected to determine the normalized Generalized Polarization (N-GP). In some embodiments, nanoparticles formulated with lipids of the disclosure have a surface hydrophobicity expressed as N-GP of between about 0.5 and about 1.5. For example, in some embodiments, nanoparticles formulated with lipids of the disclosure have a surface hydrophobicity expressed as N-GP of about 0.5, about 0.6, about 0.7, about 0.8, about 0.9, about 1.0, about 1.1, about 1.2, about 1.3, about 1.4, or about 1.5. In some embodiments, nanoparticles formulated with lipids of the disclosure have a surface hydrophobicity expressed as N-GP of about 1.0 or about 1.1.

[2] = Encapsulation efficiency (% EE) of lipid nanoparticles; type: physicochemical; details: nanoparticles comprising the lipid
Procedure: For nanoparticle compositions including an RNA, a QUANT-IT™ RIBOGREEN® RNA assay (Invitrogen Corporation Carlsbad, CA) can be used to evaluate the encapsulation of an RNA by the nanoparticle composition. The samples are diluted to a concentration of approximately 5 μg/mL in a TE buffer solution (10 mM Tris-HCl, 1 mM EDTA, pH 7.5). 50 μL of the diluted samples are transferred to a polystyrene 96 well plate and either 50 μL of TE buffer or 50 μL of a 2% Triton X-100 solution is added to the wells. The plate is incubated at a temperature of 37° C. for 15 minutes. The RIBOGREEN® reagent is diluted 1:100 in TE buffer, and 100 μL of this solution is added to each well. The fluorescence intensity can be measured using a fluorescence plate reader (Wallac Victor 1420 Multilablel Counter; Perkin Elmer, Waltham, MA) at an excitation wavelength of, for example, about 480 nm and an emission wavelength of, for example, about 520 nm. The fluorescence values of the reagent blank are subtracted from that of each of the samples and the percentage of free RNA is determined by dividing the fluorescence intensity of the intact sample (without addition of Triton X-100) by the fluorescence value of the disrupted sample (caused by the addition of Triton X-100).
The efficiency of encapsulation of a therapeutic and/or prophylactic describes the amount of therapeutic and/or prophylactic that is encapsulated or otherwise associated with a lipid nanoparticle (e.g., an empty LNP or a loaded LNP) after preparation, relative to the initial amount provided. The encapsulation efficiency is desired to be high (e.g., close to 100%). The encapsulation efficiency may be measured, for example, by comparing the amount of therapeutic and/or prophylactic in a solution containing a loaded LNP before and after breaking up the loaded LNP with one or more organic solvents or detergents. Fluorescence may be used to measure the amount of free therapeutic and/or prophylactic (e.g., RNA) in a solution. For the loaded LNPs formulated with lipids of the disclosure, the encapsulation efficiency of a therapeutic and/or prophylactic is at least 50%, for example 50%, 55%, 60%, 65%, 70%, 75%, 80%, 85%, 90%, 91%, 92%, 93%, 94%, 95%, 96%, 97%, 98%, 99%, or 100%. In some embodiments, the encapsulation efficiency is at least 80%. In some embodiments, the encapsulation efficiency is at least 90%. In some embodiments, the encapsulation efficiency of the therapeutic and/or prophylactic agent is between 80% and 100%.
(§1) Lipid nanoparticles (e.g., empty LNPs or loaded LNPs) including DSPC as a phospholipid, cholesterol as a structural lipid, PL-II (e.g., PEG-1) as a PEG lipid, and a lipid according to Formula (I-1), (I), (I-A), (I-A1), (I-A2), (I-A3), or (I-A4) were prepared. In some embodiments, the lipid nanoparticles further included rhodamine-DOPE as a fluorescent lipid. Tables 2a, 2b, and 3 summarize the characteristics of the formulations.

[3] = Particle size (diameter) and polydispersity index of lipid nanoparticles; type: physicochemical; details: nanoparticles comprising the lipid
Procedure: A Zetasizer Nano ZS (Malvern Instruments Ltd, Malvern, Worcestershire, UK) can be used to determine the particle size, the polydispersity index (PDI) and the zeta potential of the nanoparticle compositions in 1×PBS in determining particle size and 15 mM PBS in determining zeta potential.
Lipid nanoparticles (e.g., empty LNPs or loaded LNPs) may be characterized by a variety of methods. For example, microscopy (e.g., transmission electron microscopy or scanning electron microscopy) may be used to examine the morphology and size distribution of a nanoparticle composition. Dynamic light scattering or potentiometry (e.g., potentiometric titrations) may be used to measure zeta potentials. Dynamic light scattering may also be utilized to determine particle sizes. Instruments such as the Zetasizer Nano ZS (Malvern Instruments Ltd, Malvern, Worcestershire, UK) may also be used to measure multiple characteristics of a nanoparticle composition, such as particle size, polydispersity index, and zeta potential.
as §1

[4] = Apparent pKa of lipid nanoparticles; type: physicochemical
CD-1 mice = assay: Expression of hEPO induced by LNPs (mRNA encoding hEPO) administered to mice; type: in vivo; details: serum, 6 h after intravenous injection; for Avg. hEPO Concentration (mIU/mL): Table 4b
Procedure: In some embodiments, hEPO concentrations were determined using an […] (ELLA) Simple Plex Assay (ProteinSimple) with a Human Erythroprotein cartridge. Standards for this assay are calibrated according to the 2. IRP WHO preparation. Nanoparticle compositions including mRNA are useful in the evaluation of the efficacy and usefulness of various formulations for the delivery of therapeutic and/or prophylactics. Higher levels of protein expression induced by administration of a composition including an mRNA will be indicative of higher mRNA translation and/or nanoparticle composition mRNA delivery efficiencies. As the non-RNA components are not thought to affect translational machineries themselves, a higher level of protein expression is likely indicative of a higher efficiency of delivery of the therapeutic and/or prophylactic by a given nanoparticle composition relative to other nanoparticle compositions or the absence thereof.
To assess potency of expression of lipids of the disclosure, the protein expression (hEPO) following administration of a nanoparticle comprising a lipid of the disclosure (e.g., a loaded LNP) to mice was measured.
Lipid nanoparticles (LNPs) including DSPC as a phospholipid, cholesterol as a structural lipid, PL-II (e.g., PEG-1) as a PEG lipid, a lipid according to Formula (I-1), (I), (I-A), (I-A1), (I-A2), (I-A3), or (I-A4), and an mRNA encoding hEPO were intravenously administered to CD-1 mice. The concentration of hEPO in serum was tested at 6 h after injection.

| Structure (SMILES) | Avg. hEPO Concentration (mIU/mL) (CD-1 mice; ELLA Simple Plex Assay) | other results |
| --- | --- | --- |
| CCCCCCCCC(CCCCCCCC)OC(=O)CCCCCCCN(CCCCCCCC(=O)OCCC(CCCC)CCCC)CCCNc1n[s+]([O-])nc1NC (stereo not drawn) [Compound 1] | – | Lipid nanoparticle surface hydrophobicity (N-GP*) ([1]; Table 2a, Laurdan, higher N-GP indicates a less polar surface): 1.07; % EE ([2]; Table 2a): 98.1%; % EE ([2]; Table 3): 97.9%; PDI ([3]; Table 2a): 0.342; Diameter (nm) ([3]; Table 2a, DSPC, cholesterol, PEG lipid): 69.7 nm; Diameter (nm) ([3]; Table 3): 63.3 nm; PDI ([3]; Table 3): 0.083; Apparent pKa ([4]; Table 2a, nanoparticles comprising the lipid): 7.187; Avg. hEPO Concentration (mIU/mL) ± Avg. SD (CD-1 mice; Table 4a): 7.26E+06 ± 1.51E+05 mIU/mL |
| CCCCCCCCC(CCCCCCCC)OC(=O)CCCCCCCN(CCCCCCCC(=O)OCCC(CCCC)CCCC)CCCNc1noc(N)n1 [Compound 2] | – | LNP surface hydrophobicity (N-GP*) ([1]; Table 2b, nanoparticles comprising the lipid): 1.21; % EE ([2]; Table 2b): 99.2%; % EE ([2]; Table 3): 97.6%; Diameter (nm) ([3]; Table 2b): 68.6 nm; PDI ([3]; Table 2b): 0.214; Diameter (nm) ([3]; Table 3): 52.6 nm; PDI ([3]; Table 3): 0.163; Apparent pKa 95% CI ([4]; Table 2b, 95% confidence interval): 6.437 to 6.559; Avg. hEPO Concentration (mIU/mL)* ± Avg. SD (CD-1 mice; Table 4a, ELLA Simple Plex Assay): 3.38E+05 ± 9.49E+03 mIU/mL |
| CCCCCCCCC(CCCCCCCC)OC(=O)CCCCCCCN(CCCCCCCC(=O)OCCC(CCCC)CCCC)CCCNC(C)=O [Compound 29] | 7.06E+05 | – |
| CCCCCCCCC(CCCCCCCC)OC(=O)CCCCCCCN(CCCCCCCC(=O)OCCC(CCCC)CCCC)CCCNC(=O)CC [Compound 30] | 4.73E+06 | – |
| CCCCCCCCC(CCCCCCCC)OC(=O)CCCCCCCN(CCCCCCCC(=O)OCCC(CCCC)CCCC)CCCNC(=O)C(C)C [Compound 31] | 2.31E+06 | – |
| CCCCCCCCC(CCCCCCCC)OC(=O)CCCCCCCN(CCCCCCCC(=O)OCCC(CCCC)CCCC)CCCNC(=O)C(C)(C)C [Compound 32] | 1.54E+06 | – |
| CCCCCCCCC(CCCCCCCC)OC(=O)CCCCCCCN(CCCCCCCC(=O)OCCC(CCCC)CCCC)CCCNC(=O)c1ccccc1 [Compound 33] | 1.78E+05 | – |
| CCCCCCCCC(CCCCCCCC)OC(=O)CCCCCCCN(CCCCCCCC(=O)OCCC(CCCC)CCCC)CCCNC(=O)C(C)O (stereo not drawn) [Compound 35] | 1.54E+05 | – |
| CCCCCCCCC(CCCCCCCC)OC(=O)CCCCCCCN(CCCCCCCC(=O)OCCC(CCCC)CCCC)CCCNC(=O)C1(C)CCC1 [Compound 36] | 1.41E+06 | – |
| CCCCCCCCC(CCCCCCCC)OC(=O)CCCCCCCN(CCCCCCCC(=O)OCCC(CCCC)CCCC)CCCNC(=O)C1(CC)CC1 [Compound 37] | 1.39E+06 | – |
| CCCCCCCCC(CCCCCCCC)OC(=O)CCCCCCCN(CCCCCCCC(=O)OCCC(CCCC)CCCC)CCCNC(=O)COC [Compound 38] | 6.13E+05 | – |
| CCCCCCCCC(CCCCCCCC)OC(=O)CCCCCCCN(CCCCCCCC(=O)OCCC(CCCC)CCCC)CCCNC(=O)C1CC1 [Compound 39] | 2.93E+06 | – |
| CCCCCCCCC(CCCCCCCC)OC(=O)CCCCCCCN(CCCCCCCC(=O)OCCC(CCCC)CCCC)CCCNC(=O)C1CCOCC1 [Compound 40] | 2.16E+06 | – |
| CCCCCCCCC(CCCCCCCC)OC(=O)CCCCCCCN(CCCCCCCC(=O)OCCC(CCCC)CCCC)CCCNC(=O)C1CCCCC1 [Compound 41] | 1.31E+06 | – |
| CCCCCCCCC(CCCCCCCC)OC(=O)CCCCCCCN(CCCCCCCC(=O)OCCC(CCCC)CCCC)CCCNC(=O)C12CCC(CC1)CC2 [Compound 42] | 1.02E+06 | – |
| CCCCCCCCC(CCCCCCCC)OC(=O)CCCCCCCN(CCCCCCCC(=O)OCCC(CCCC)CCCC)CCCNC(=O)C1CCCO1 (stereo not drawn) [Compound 43] | 2.23E+06 | – |
| CCCCCCCCC(CCCCCCCC)OC(=O)CCCCCCCN(CCCCCCCC(=O)OCCC(CCCC)CCCC)CCCNC(=O)C1CCOC1 (stereo not drawn) [Compound 44] | 1.02E+06 | – |
| CCCCCCCCC(CCCCCCCC)OC(=O)CCCCCCCN(CCCCCCCC(=O)OCCC(CCCC)CCCC)CCCNC(=O)CNC(C)=O [Compound 46] | 3.88E+03 | – |
| CC#CC(=O)NCCCN(CCCCCCCC(=O)OCCC(CCCC)CCCC)CCCCCCCC(=O)OC(CCCCCCCC)CCCCCCCC [Compound 47] | 1.17E+06 | – |
| CCCCCCCCC(CCCCCCCC)OC(=O)CCCCCCCN(CCCCCCCC(=O)OCCC(CCCC)CCCC)CCCNC(=O)C1CCN(C(C)=O)C1 (stereo not drawn) [Compound 48] | 1.47E+02 | – |
| CCCCCCCCC(CCCCCCCC)OC(=O)CCCCCCCN(CCCCCCCC(=O)OCCC(CCCC)CCCC)CCCNC(=O)C#CC1CC1 [Compound 50] | 2.60E+05 | – |
| CCCCCCCCC(CCCCCCCC)OC(=O)CCCCCCCN(CCCCCCCC(=O)OCCC(CCCC)CCCC)CCCNC(=O)C1(C)CCOC1 (stereo not drawn) [Compound 55] | 2.61E+06 | – |
| CCCCCCCCC(CCCCCCCC)OC(=O)CCCCCCCN(CCCCCCCC(=O)OCCC(CCCC)CCCC)CCCNC(=O)C1(C)CCCO1 (stereo not drawn) [Compound 56] | 1.17E+04 | – |
| CCCCCCCCC(CCCCCCCC)OC(=O)CCCCCCCN(CCCCCCCC(=O)OCCC(CCCC)CCCC)CCCNC(=O)C1(C)CCCCC1 [Compound 58] | 4.17E+05 | – |
| CCCCCCCCC(CCCCCCCC)OC(=O)CCCCCCCN(CCCCCCCC(=O)OCCC(CCCC)CCCC)CCCNC=O [Compound 59] | 3.27E+05 | – |
| CCCCCCCCC(CCCCCCCC)OC(=O)CCCCCCCN(CCCCCCCC(=O)OCCC(CCCC)CCCC)CCCNC(=O)C1CN(C(C)=O)C1 [Compound 60] | 2.10E+02 | – |
